The values that follow come from patent publication US6124334A, “Hetero-aromatic ring substituted phenyloxazolidinone antimicrobials” (Pharmacia & Upjohn Company, priority 1998, dated 2000).

Each structure is given as a SMILES string. ≈ marks a conversion by molar mass, not a printed value. Where “and” joins values, the source holds several entries; their conditions need not be identical. Equal entries are not always repeated.

For one experiment, the system named is S. pneumoniae, UC ®9912. Nature of the experiment: In vitro MIC by agar dilution, S. pneumoniae. The settings on record: Streptococcus pneumoniae, UC9912, read-out: In vitro Activities: Minimum Inhibitory Concentrations, S. pneumoniae, UC 9912. In kind it is cell-based. The source says:
The oxazolidinone antibacterial agents of this invention have useful activity against a variety of organisms. The in vitro activity of compounds of this invention can be assessed by standard testing procedures such as the determination of minimum inhibitory concentration (MIC) by agar dilution as desribed in "Methods for Dilution Antimicrobial Susceptibility Tests for Bacteria That Grow Aerobically" (MFT) published January 1983 by the National Committee for Clinical Laboratory Standards, 771 East Lancaster Avenue, Villanova, Pa. 19084, USA. The activity of selected compounds of this invention against Staphylococcus aureus and Streptococcus pneumoniae are shown in Table 1.

The next experiment deals with S. aureus, UC ®9213. Nature of the experiment: In vivo Murine Assay procedure, ED50 (survival of infected mice). Details: species or system Staphylococcus aureus; female mice. As to the method: Antimicrobial activity was tested in vivo using the Murine Assay procedure. Groups of female mice (six mice of 18-20 grams each) were injected intraperitoneally with bacteria which were thawed just prior to use and suspended in brain heart infusion with 4% brewers yeast UC9213 (Staphylococcus aureus) or brain heart infusion (Streptococcus species). Antibiotic treatment at six dose levels per drug was administered one hour and five hours after infection by either oral intubation or subcutaneous ("subcut.") routes. Survival was observed daily for six days. ED50 values based on mortality ratios were calculated using probit analysis. The subject compounds were compared against a well-known antimicrobial (Vancomycin) as a control.

Regarding `CN[C@H](CC(C)C)C(=O)N[C@H]1C(=O)N[C@@H](CC(N)=O)C(=O)N[C@H]2C(=O)N[C@H]3C(=O)N[C@H](C(=O)N[C@H](C(=O)O)c4cc(O)cc(O)c4-c4cc3ccc4O)[C@H](O)c3ccc(c(Cl)c3)Oc3cc2cc(c3O[C@@H]2O[C@H](CO)[C@@H](O)[C@H](O)[C@H]2O[C@H]2C[C@](C)(N)[C@H](O)[C@H](C)O2)Oc2ccc(cc2Cl)[C@H]1O` [Vancomycin], the MIC in the experiment with S. pneumoniae, UC ®9912 amounted to 0.5 µg/mL (≈ 0.345 µM). For the same compound, the ED50 in the experiment with S. aureus, UC ®9213 (Staphylococcus aureus, UC9213, 144 h, read-out: Control, ED50) turned out to be 2.2 mg/kg. Further, the “Control, ED50” value with S. aureus, UC ®9213 (vancomycin control run beside the Example of the same line, mice infected i.p. with S. aureus UC 9213, treatment 1 h and 5 h after infection, oral or subcutaneous, 8640 min) was 2.4 mg/kg and 2.0 mg/kg and 1.2 mg/kg.

Usually ED50 stands for the dose at which the effect has come halfway, by size or by number of responders.
